Where a name gives a salt, the structure may show the parent alone.
Molecular target: T1, H2-receptor (Cavia porcellus, UniProt P47747)
T1 construct: from tissue; host or cells: guinea-pig atrium (isolated atrial strip)
Test: Test B: H2-receptor antagonism in isolated guinea-pig atrium
Format: cell-based
Conditions: 0.5 h, dose 1.0 × 10^-6 g/ml, inhibition of histamine-induced increase in beating rate, 30 minutes after dosing
Protocol: The atrial strip isolated from guinea-pig was suspended under an initial tension 0.3 to 0.6 g in an organ bath containing Tyrode solution at 30° C., aerated 95%O2 -5%CO2 gas. The beating rate and amplitude of contraction of the atrium were recorded by means of a transducer and a polygraph. Histamine ([…]) was added to the bathing fluid and the increase in beating rate after dosing was measured. Addition of test compound was made 30 minutes after washing out histamine. Inhibitory effect of test compound was calculated by comparing histamine-induced increases in beating rate before and 30 minutes after dosing with test compound.

T1 sequence (P47747 whole entry): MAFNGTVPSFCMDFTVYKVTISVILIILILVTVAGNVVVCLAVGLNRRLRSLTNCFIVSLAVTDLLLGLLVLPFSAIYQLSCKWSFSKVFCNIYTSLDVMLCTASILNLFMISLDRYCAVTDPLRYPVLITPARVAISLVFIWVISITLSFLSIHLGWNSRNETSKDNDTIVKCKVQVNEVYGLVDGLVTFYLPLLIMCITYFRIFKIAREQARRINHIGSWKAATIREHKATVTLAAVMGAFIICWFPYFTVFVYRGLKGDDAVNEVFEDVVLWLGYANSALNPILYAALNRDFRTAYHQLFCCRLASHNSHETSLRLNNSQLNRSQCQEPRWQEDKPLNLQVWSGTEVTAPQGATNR

Row | SMILES | inhibition at 1 µg/mL [%]
1 | CNc1nc2ccc(CCc3nc4cc(OC)ccn4c3C)cc2o1 [Test Compound (k), 6-[2-(7-Methoxy-3-methylimidazo[1,2-a]pyridin-2-yl)ethyl]-2-methylaminobenzoxazole dihydrochloride] | 92.5

Same assay, conditions: 0.5 h, dose 3.2 × 10^-6 g/ml, inhibition of histamine-induced increase in beating rate, 30 minutes after dosing

Row | inhibition at 3.2 µg/mL [%] | SMILES
2 | 93.1 | Cc1ccn2c(C)c(CCc3ccc4nc(N)oc4c3)nc2c1 [Test Compound (i), 6-[2-(3,7-Dimethylimidazo[1,2-a]pyridin-2-yl)ethyl]-2-aminobenzoxazole]
3 | 100 | COc1ccn2c(C)c(CCc3ccc4nc(N)oc4c3)nc2c1 [Test Compound (h), 6-[2-(7-Methoxy-3-methylimidazo[1,2-a]pyridin-2-yl)ethyl]-2-aminobenzoxazole]
4 | 98 | CCNc1nc2ccc(CCc3nc4cc(C)ccn4c3C)cc2o1 [Test Compound (j), 6-[2-(3,7-Dimethylimidazo[1,2-a]pyridin-2-yl)ethyl]-2-ethylaminobenzoxazole]

System: stress ulcer
Test: Test A: Inhibition of stress ulcer
Format: in vivo, male Sprague-Dawley rats
Conditions: rat, oral, given just before immobilization, ulcer area after 7 hours vs control
Protocol: Five male Sprague-Dawley rats, aged 7 weeks and weighing about 200 g were used per group for the study on stress ulcer after the fast for 24 hours. Each animal was immobilized in a restrain cage and immersed to a level of the xiphoid in a water bath kept 22° C. Each of the test compound suspended in 0.1% methylcellulose solution was administered orally (5 ml/kg) just before the immobilization. Seven hours later, the animals were sacrificed and their stomachs were removed. The stomach was then fixed with 2% formalin. The area of ulcers was measured for each animal, and percentage of inhibition was calculated by comparing the mean area of ulcers (mm^2) in the test animals with that in the control animals.

Row | SMILES | inhibition in vivo at 32 mg/kg [%]
5 | Nc1nc2ccc(Cc3ccccn3)cc2s1 [Test Compound (e), 6-[(2-Pyridyl)methyl]-2-aminobenzothiazole] | 98.2
6 | CNc1nc2ccc(Cc3ccccn3)cc2s1 [Test Compound (a), 6-[(2-Pyridyl)methyl]-2-methylaminobenzothiazole] | 87.8
7 | COc1ccn2c(C)c(CCc3ccc4nc(N)oc4c3)nc2c1 [Test Compound (h), 6-[2-(7-Methoxy-3-methylimidazo[1,2-a]pyridin-2-yl)ethyl]-2-aminobenzoxazole] | 93.4
8 | Cc1ccn2c(C)c(CCc3ccc4nc(N)sc4c3)nc2c1 [Test Compound (g), 6-[2-(3,7-Dimethylimidazo[1,2-a]pyridin-2-yl)ethyl]-2-aminobenzothiazole d ihydrochloride] | 85.4
9 | CCNc1nc2ccc(CCc3ccccn3)cc2s1 [Test Compound (b), 6-[2-(2-Pyridyl)ethyl]-2-ethylaminobenzothiazole] | 83.9
10 | CNc1nc2ccc(CCc3nc4cc(C)ccn4c3C)cc2o1 [Test Compound (f), 6-[2-(3,7-Dimethylimidazo[1,2-a]pyridin-2-yl)ethyl]-2-methylaminobenzoxazole] | 85.1
11 | CCNc1nc2ccc(CCc3cn4ccc(C)cc4n3)cc2o1 [Test Compound (d)] | 84.6
12 | CCNc1nc2ccc(CCc3nc4cc(OC)ccn4c3C)cc2o1 [Test Compound (l), 2-Ethylamino-6-[2-(7-methoxy-3-methylimidazo[1,2-a]pyridin-2-yl)ethyl]benzoxazole dihydrochloride] | 98.6
13 | Nc1nc2ccc(CCc3ccccn3)cc2s1 [Test Compound (c), 6-[2-(2-Pyridyl)ethyl]-2-aminobenzothiazole] | 88.5

Source: patent US5047411A, “Benzazole compounds and pharmaceutical composition comprising the same” (Fujisawa Pharmaceutical Co., Ltd., priority 1988, dated 1991)
